Measured values reported in patent publication US20120245229A1, “METHOD FOR TREATING NEUROPATHIC PAIN” (priority 2009, published 2012).

Key:
[1] = tested on: lamina II neurons; assay: Patch clamp recording of sEPSCs in lamina II neurons of spinal cord slices; assay type: cell-based, mice
Protocol: Spinal cord slice preparation. As previously reported^39, a portion of the lumbar spinal cord (L4-L5) was removed from young mice (3-4 week old) under urethane anesthesia (1.5-2.0 g/kg, i.p.) and transverse spinal cord slices were cut (600 μm) on a vibrating microslicer. The slices were perfused with Kreb's solution (8 ml/min) for >2 h prior to experiments. Some slices were stimulated with TNF-α (10 ng/ml, 5 min), the slices were fixed with 4% paraformaldehyde for 1 h, and processed pERK immunohistochemistry using thin sections (15 μm)^13.
Patch clamp recordings in spinal slices. Whole cell patch-clamp recordings were performed in lamina II neurons in voltage clamp mode^39. After establishing the whole-cell configuration, neurons were held at the holding potentials of −70 mV for recording spontaneous excitatory postsynaptic current (sEPSC). NMDA-induced currents were recorded by bath application of NMDA (50 μM, Sigma) at the holding potential of −50 mV. Membrane currents were amplified with an Axopatch 200A amplifier (Axon Instruments) in voltage-clamp mode. pCLAMP 6 was used and Mini Analysis (Synaptosoft Inc.) software to store and analyze the data. Those cells showing >5% changes from the baseline levels were reagrded as responding ones^24.
Resolvins were also used for intraplantar injection. RvD1 or RvE1 was injected into the plantar surface of a hindapaw [20 ng, 20 μl , in 1% ethanol (Supplementary FIG. 5a, 5b) or in 10% ethanol (FIG. 2e, Supplementary FIG. 1d)]. DRG cultures were incubated with RvE1 (10 ng/ml, 0.1% ethanol in culture medium) and perfused spinal cord slices with RvE1 (1 ng/ml, in 0.01% ethanol and Kreb's solution).
Perfusion of spinal cord slices: Spinal cord slices were incubated with chemerin (100 ng/ml, in Kreb's solution), TNF-α (10 ng/ml, in Kreb's solution), capsaicin (100 nM, in 0.01% DMSO and Kreb's solution), TRPV1 antagonist capsazepine (Sigma, 10 μM, in 0.01% DMSO and Kreb's solution), pertussix toxin (0.5 μg/ml, in Kreb's solution), and MEK inhibitor PD98059 and U0126 (CalBiochem, 1 μM, in 0.01% DMSO and Kreb's solution). For pertussix toxin treatment, spinal cord slices were incubated with the toxin for 3 h before stimulation.

[2] = tested on: naïve mice; assay: Basal pain thresholds in naive mice; assay type: in vivo; conditions: intrathecal
Protocol: (§1) Behavioral analysis. Mice were habituated in the testing environment for two days and performed behavioral testing in a blinded manner. Formalin-evoked spontaneous inflammatory pain was assessed by measuring duration (seconds) animals spent on licking/flinching the affected paws every 5 min for 45 min. Capsaicin-induced spontaneous pain was aslo assessed for 10 min. For testing mechanical sensitivity, mice were put in boxes on an elevated metal mesh floor and stimulated hindpaw with a series of von Frey hairs with logarithmically incrementing stiffness (0.02-2.56 grams, Stoelting), presented perpendicular to the plantar surface. It was determined the 50% paw withdrawal threshold using Dixon's up-down method^40. For testing heat sensitivity, mice were placed in plastic boxes and tested heat sensitivity using Hargreaves radiant heat apparatus (IITC Life Science Inc.). The basal paw withdrawal latency was adjusted to 9-12 seconds and set a cut-off of 20 seconds to prevent tissue damage. The percent maximal possible antinociceptive effect (% M.P.E) was calculated using the equation % M.P.E.=[(PL−BL2)/(BL1−BL2)]×100. BL1, baseline latency before inflammation; BL2, baseline latency after inflammation but before drug injection; PL, latency post drug injection.

[3] = tested on: capsaicin-induced spontaneous pain; assay: Capsaicin-induced acute spontaneous pain; assay type: in vivo, mice
Protocol: as §1, with “The percent maximal possible antinociceptive effect (% M.P.E) was calculated using the equation % M.P.E.=[(PL−BL2)/(BL1−BL2)]×100.” left out, “injection. Intrathecal injection: […] To examine whether pretreatment of RvE1 attenuates capsaicin-induced acute spontaneous pain, RvE1 and capsaicin were mixed and injected at the same time (FIG. 3f). […]” for “injection.”

[4] = tested on: CFA-induced mechanical allodynia; assay: CFA-induced mechanical allodynia (von Frey paw withdrawal threshold); assay type: in vivo, mice; conditions: intrathecal RvE1 3-100 ng, 3 d after CFA injection
Protocol: (§2) Animals and pain models. Adult CD1 mice (male, 25-32 g) were used for most experiments. Knockout mice were used lacking TNFR1/II (Tnfrsf1a/1b^−/−) and TRPV1 (Trpv1^−/−) and C57BL/6 wild-type control mice, all from Jackson, for some experiments. All animal procedures performed in this study were approved by the Harvard Medical Area Standing Committee on Animals. 20 μl of diluted formalin (5%), carrageenan (CRG, 1%), or complete Freund's adjuvant (CFA) were injected into the plantar surface of a hindpaw to produce acute, persistent, or chronic inflammatory pain, respectively. Postoperative pain was also produced through hindpaw incision^36 and neuropathic pain by ligation of the spinal nerve^37.
Behavioral analysis. Mice were habituated in the testing environment for two days and performed behavioral testing in a blinded manner. Formalin-evoked spontaneous inflammatory pain was assessed by measuring duration (seconds) animals spent on licking/flinching the affected paws every 5 min for 45 min. Capsaicin-induced spontaneous pain was aslo assessed for 10 min. […] It was determined the 50% paw withdrawal threshold using Dixon's up-down method^40. […] The percent maximal possible antinociceptive effect (% M.P.E) was calculated using the equation % M.P.E.=[(PL−BL2)/(BL1−BL2)]×100. […]

[5] = tested on: inflammatory pain; assay: Inflammatory pain models induced by formalin or CFA (summary statements); assay type: in vivo, mouse
Protocol: as §2, §1

## CC[C@@H](O)/C=C/C=C\C[C@@H](O)/C=C/C=C/C=C\[C@@H](O)CCCC(=O)O [RvE1, 5S,12R,18R-trihydroxyeicosapentaenoic acid]
[1]; PTX 0.5 μg/ml for 3 h before capsaicin stimulation
  capsaicin-induced increases in sEPSC frequency after pretreatment with pertussis toxin: fails to inhibit
[1]; RvE1 alone, 1 ng/ml perfusion
  basal synaptic transmission (sEPSC): did not alter basal synaptic transmission
[1]; TNF-α 10 ng/ml, RvE1 1 ng/ml, capsazepine 10 μM
  TNF-α-evoked sEPSC frequency increase: blocked
[1]; capsaicin 100 nM, RvE1 1 ng/ml, chemerin 100 ng/ml, PD98059 and U0126 1 μM
  capsaicin-evoked sEPSC frequency increase: completely blocked
[2]
  baseline sensory thresholds: did not alter baseline sensory thresholds
[3]; intrathecal RvE1 mixed with capsaicin 0.5 μg
  intrathecal capsaicin-evoked acute spontaneous pain: prevented
[3]; peripheral (intraplantar) RvE1 10 min before capsaicin 5 μg
  intraplantar capsaicin-induced acute pain: reduced
[4]
  CFA-induced mechanical allodynia: reduces CFA-induced mechanical allodynia in a dose-dependent manner
[5]
  pain-like behaviors: potently inhibit
